tested on: Tenebrio molitor; assay: Growth inhibition of topically dosed Tenebrio molitor larvae assessed as duration of pupal instar stage at 120 ug measured every 24 hrs for 60 days; format: functional

Compound	Activity
CC(C)=CCC/C(=C\CC/C(=C\CCc1ccoc1)C(=O)O)C(=O)O	10.7 days
CC(C)=CCC/C(=C/CC/C(=C\CCc1ccoc1)C(=O)O)C(=O)O	4.7 days
CC(C)=CCC/C(=C\CC/C(=C\CCc1ccoc1)CO)CO	5.3 days
CC(C)=CCC[C@](O)(CO)[C@H]1CC/C(=C\CCc2ccoc2)CO1	16.2 days
COC(=O)/C(=C\CC/C(=C\CCc1ccoc1)C(=O)OC)CC[C@H](O)C(C)(C)O	10 days
CC(C)=CCC[C@@]1(CO)OC1CC[C@@]1(CO)OC1CCc1ccoc1 (single isomer, unassigned)	12.7 days
COC(=O)/C(=C/CCc1ccoc1)CC/C=C(\CC[C@@H](O)C(C)(C)O)C(=O)OC	12 days
COC(=O)/C(=C\CC/C(=C\CCc1ccoc1)C(=O)OC)CCC=C(C)C	6 days
CC(C)=CCC[C@@](O)(CO)[C@@H]1CC[C@]2(CO1)OC2CCc1ccoc1 (single isomer, unassigned)	10.6 days
COC(=O)/C(=C/CCc1ccoc1)CC/C=C(\CC[C@H](O)C(C)(C)O)C(=O)OC	12.1 days
COC(=O)/C(=C/CC/C(=C\CCc1ccoc1)C(=O)OC)CCC=C(C)C	7.4 days
CC(C)=CCC[C@](O)(CO)[C@H]1CC[C@@]2(CO1)OC2CCc1ccoc1 (single isomer, unassigned)	9.9 days
COC(=O)/C(=C\CC/C(=C\CCc1ccoc1)C(=O)OC)CC[C@@H](O)C(C)(C)O	11.2 days
CC(C)=CCC/C(=C\CC/C(=C\CCC1=CCOC1=O)C(=O)O)C(=O)O	5.09 days
CC(C)=CCC[C@@](O)(CO)[C@@H]1CC/C(=C\CCc2ccoc2)CO1	12 days
COC(=O)/C(=C/CCc1ccoc1)CC/C=C1\CC[C@H](C(C)(C)O)OC1=O	11.2 days

tested on: Tenebrio molitor; assay: Growth inhibition of topically dosed Tenebrio molitor larvae assessed as imaginal molt inhibition at 120 ug; format: functional

Compound	Inhibition
CC(C)=CCC/C(=C\CC/C(=C\CCc1ccoc1)C(=O)O)C(=O)O	33.6%
CC(C)=CCC[C@](O)(CO)[C@H]1CC/C(=C\CCc2ccoc2)CO1	14.4%
COC(=O)/C(=C/CC/C(=C\CCc1ccoc1)C(=O)OC)CCC=C(C)C	34.3%
CC(C)=CCC[C@](O)(CO)[C@H]1CC[C@@]2(CO1)OC2CCc1ccoc1 (single isomer, unassigned)	30.8%
CC(C)=CCC/C(=C\CC/C(=C\CCC1=CCOC1=O)C(=O)O)C(=O)O	24.1%

Reference: ChEMBL document CHEMBL1144788, “Insect growth regulatory effects of linear diterpenoids and derivatives from Baccharis thymifolia” (2008)
